We go through two compounds from paper PMC11687724, “Mechanism of connexin channel inhibition by mefloquine and 2-aminoethoxydiphenyl borate” (PLOS ONE, 2024).

The target of test [1] is T1, Cx43 (Homo sapiens, UniProt P17302).
T1 construct: gene GJA1; Cx43 gap junction channel
In words: cryo-EM of Cx43 GJC at […] Å; gap-FRAP in HEK293F cells. The format is binding.

Test [2] deals with T2, Cx32 (Homo sapiens, UniProt P08034). In words: tryptophan fluorescence quenching; cryo-EM of Cx32 GJC at […] Å; dye uptake and gap-FRAP. Format: binding. Further details: gene GJB1; purified Cx32 (gap junction channel).
T2 sequence (P08034 whole entry): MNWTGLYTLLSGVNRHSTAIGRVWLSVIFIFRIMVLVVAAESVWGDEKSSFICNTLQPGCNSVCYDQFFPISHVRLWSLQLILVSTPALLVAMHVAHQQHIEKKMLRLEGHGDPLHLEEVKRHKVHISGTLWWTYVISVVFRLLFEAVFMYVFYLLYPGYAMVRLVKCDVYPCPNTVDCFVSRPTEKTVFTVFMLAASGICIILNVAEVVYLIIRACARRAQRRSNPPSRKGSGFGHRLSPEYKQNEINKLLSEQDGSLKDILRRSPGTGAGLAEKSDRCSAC
In test [3] the target is T2, Cx32. In words: biochemical. Further details: gene GJB1.

SMILES strings stand for the structures.

T1 sequence (P17302 2-382): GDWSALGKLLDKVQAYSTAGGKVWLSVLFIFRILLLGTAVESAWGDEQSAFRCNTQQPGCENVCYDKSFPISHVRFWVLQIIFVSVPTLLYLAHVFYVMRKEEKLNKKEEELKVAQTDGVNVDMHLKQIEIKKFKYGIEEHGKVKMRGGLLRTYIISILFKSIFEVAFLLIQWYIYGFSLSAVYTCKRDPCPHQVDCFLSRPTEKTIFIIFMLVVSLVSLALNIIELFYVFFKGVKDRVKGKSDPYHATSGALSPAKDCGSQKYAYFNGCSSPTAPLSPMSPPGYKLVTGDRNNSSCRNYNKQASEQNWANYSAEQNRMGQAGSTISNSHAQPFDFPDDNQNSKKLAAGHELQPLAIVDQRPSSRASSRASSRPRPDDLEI

The term Kd denotes a measure of binding affinity in units of concentration. Low values mean higher affinity, high ones lower affinity. Take `O[C@H](c1cc(C(F)(F)F)nc2c(C(F)(F)F)cccc12)[C@@H]1CCCCN1` (racemic) [MFQ, mefloquine]: in test [1], the “cryo-EM of Cx43 GJC at 3.7 Å; gap-FRAP in HEK293F cells” value is reported as “a prominent additional density corresponding to MFQ was observed within the region corresponding to site M”. In test [2], this compound displayed a Kd of 43.1 µM. Regarding `NCCOB(c1ccccc1)c1ccccc1` [2APB, 2-aminoethoxydiphenyl borate], binding in test [3] was put at a Kd of 1.05 µM.
